Source: patent US9102678B2, “Compounds and methods for inhibiting mitotic progression” (Millennium Pharmaceuticals, Inc., priority 2004, dated 2015)
pIC50: −log10 of the molar value.

Biological target: T1, recombinant murine Aurora A enzyme (Mus musculus, UniProt P97477)
T1 construct: hexahistidine (His6) (N); made in house; host or cells: insect cells, baculovirus (Bac-to-Bac, Invitrogen)
Assay: Aurora A DELFIA Kinase Assay
Type: biochemical
Details: mouse Aurora A, 250 μM ATP; threshold less than or equal to 100 nM; read-out: IC50

T1 sequence (P97477 whole entry): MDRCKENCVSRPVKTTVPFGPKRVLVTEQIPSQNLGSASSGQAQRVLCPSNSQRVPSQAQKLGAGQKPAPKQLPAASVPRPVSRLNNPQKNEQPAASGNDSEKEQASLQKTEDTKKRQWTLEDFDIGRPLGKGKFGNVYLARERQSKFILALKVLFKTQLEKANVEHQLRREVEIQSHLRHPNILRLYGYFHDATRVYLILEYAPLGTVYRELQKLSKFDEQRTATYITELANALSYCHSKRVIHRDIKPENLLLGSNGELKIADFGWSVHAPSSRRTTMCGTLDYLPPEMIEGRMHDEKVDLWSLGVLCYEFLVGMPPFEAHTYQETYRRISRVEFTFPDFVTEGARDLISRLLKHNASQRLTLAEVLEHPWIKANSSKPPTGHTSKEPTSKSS

SMILES	pIC50
COc1cccc(F)c1C1=NCc2cnc(Nc3ccc(C(=O)N4CCC(N)C4)cc3)nc2-c2ccc(Cl)cc21 (stereo not drawn) [Compound I-240]	≥ 7.00
COc1cccc(F)c1C1=NCc2cnc(Nc3ccc(C(=O)N4CCNCC4)cc3)nc2-c2ccc(Cl)cc21 [Compound I-243, 9-chloro-7-(2-fluoro-6-methoxyphenyl)-N-[4-(piperazin-1-ylcarbonyl)phenyl]-5H-pyrimido[5,4-d][2]benzazepin-2-amine]	≥ 7.00
CN(CCN)C(=O)c1ccc(Nc2ncc3c(n2)-c2ccc(Cl)cc2C(c2c(F)cccc2F)=NC3)cc1 [Compound I-252, N-(2-aminoethyl)-4-{[9-chloro-7-(2,6-difluorophenyl)-5H-pyrimido[5,4-d][2]benzazepin-2-yl]amino}-N-methylbenzamide]	≥ 7.00
CN(C)C1CCN(C(=N)NC(=O)c2ccc(Nc3ncc4c(n3)-c3ccc(Cl)cc3C(c3c(F)cccc3F)=NC4)cc2)CC1 [Compound I-223, 4-{[9-chloro-7-(2,6-difluorophenyl)-5H-pyrimido[5,4-d][2]benzazepin-2-yl]amino}-N-[[4-(dimethylamino)piperidin-1-yl](imino)methyl]benzamide]	≥ 7.00
NC1CCN(C(=O)c2ccc(Nc3ncc4c(n3)-c3ccc(Cl)cc3C(c3ccccc3F)=NC4)cc2)C1 (stereo not drawn) [Compound I-103, (3-Amino-pyrrolidin-1-yl)-{4-[9-chloro-7-(2-fluoro-phenyl)-5H-benzo[c]pyrimido[4,5-e]azepin-2-ylamino]-phenyl}-methanone]	≥ 7.00
CNCCN(C)C(=O)c1ccc(Nc2ncc3c(n2)-c2ccc(Cl)cc2C(c2ccccc2F)=NC3)cc1 [Compound I-3, 4-[9-Chloro-7-(2-fluoro-phenyl)-5H-benzo[c]pyrimido[4,5-e]azepin-2-ylamino]-N-methyl-N-(2-methylamino-ethyl)-benzamide]	≥ 7.00
CNC1CCCN(C(=O)c2ccc(Nc3ncc4c(n3)-c3ccc(Cl)cc3C(c3c(F)cccc3F)=NC4)cc2)C1 (stereo not drawn) [Compound I-253, 9-chloro-7-(2,6-difluorophenyl)-N-(4-{[3-(methylamino)piperidin-1-yl]carbonyl}phenyl)-5H-pyrimido[5,4-d][2]benzazepin-2-amine]	≥ 7.00
CN1CCN(CCCNC(=O)c2ccc(Nc3ncc4c(n3)-c3ccc(Cl)cc3C(c3ccccc3F)=NC4)cc2)CC1 [Compound I-19, 4-[9-Chloro-7-(2-fluoro-phenyl)-5H-benzo[c]pyrimido[4,5-e]azepin-2-ylamino]-N-[3-(4-methyl-piperazin-1-yl)-propyl]-benzamide]	≥ 7.00
CC1CN(C(=O)c2csc(Nc3ncc4c(n3)-c3ccc(Cl)cc3C(c3c(F)cccc3F)=NC4)n2)CC(C)N1 (stereo not drawn) [Compound I-362, 9-chloro-7-(2,6-difluorophenyl)-N-{4-[(3,5-dimethylpiperazin-1-yl)carbonyl]-1,3-thiazol-2-yl}-5H-pyrimido[5,4-d][2]benzazepin-2-amine]	≥ 7.00
CC(C)(N)CNC(=O)c1ccc(Nc2ncc3c(n2)-c2ccc(Cl)cc2C(c2c(F)cccc2F)=NC3)cc1 [Compound I-260, N-(2-amino-2-methylpropyl)-4-{[9-chloro-7-(2,6-difluorophenyl)-5H-pyrimido[5,4-d][2]benzazepin-2-yl]amino}benzamide]	≥ 7.00
Cc1cc(NS(=O)(=O)c2ccc(Nc3ncc4c(n3)-c3ccc(Cl)cc3C(c3ccccc3Cl)=NC4)cc2)no1 [Compound I-69, 4-[9-Chloro-7-(2-chloro-phenyl)-5H-benzo[c]pyrimido[4,5-e]azepin-2-ylamino]-N-(5-methyl-isoxazol-3-yl)-benzenesulfonamide]	≥ 7.00
O=C(NCCN1CCOCC1)c1ccc(Nc2ncc3c(n2)-c2ccc(Cl)cc2C(c2ccccc2F)=NC3)cc1 [Compound I-29, 4-[9-Chloro-7-(2-fluoro-phenyl)-5H-benzo[c]pyrimido[4,5-e]azepin-2-ylamino]-N-(2-morpholin-4-yl-ethyl)-benzamide]	≥ 7.00
CNC1CCN(C(=O)c2ccc(Nc3ncc4c(n3)-c3ccc(Cl)cc3C(c3c(F)cccc3OC)=NC4)cc2)CC1 [Compound I-242, 9-chloro-7-(2-fluoro-6-methoxyphenyl)-N-(4-{[4-(methylamino)piperidin-1-yl]carbonyl}phenyl)-5H-pyrimido[5,4-d][2]benzazepin-2-amine]	≥ 7.00
NC1CCN(C(=O)c2ccc(Nc3ncc4c(n3)-c3ccc(Cl)cc3C(c3ccccn3)=NC4)cc2)C1 (stereo not drawn) [Compound I-299, N-{4-[(3-aminopyrrolidin-1-yl)carbonyl]phenyl}-9-chloro-7-pyridin-2-yl-5H-pyrimido[5,4-d][2]benzazepin-2-amine]	≥ 7.00
O=C(c1ccc(Nc2ncc3c(n2)-c2ccc(Cl)cc2C(c2ccccc2F)=NC3)cc1)N1CCNCC1 [Compound I-8, {4-[9-Chloro-7-(2-fluoro-phenyl)-5H-benzo[c]pyrimido[4,5-e]azepin-2-ylamino]-phenyl}-piperazin-1-yl-methanone]	≥ 7.00
CNC1CCN(C(=O)c2ccc(Nc3ncc4c(n3)-c3ccc(Cl)cc3C(c3c(F)cccc3F)=NC4)cc2)C1 (stereo not drawn) [Compound I-197, {4-[9-Chloro-7-(2,6-difluoro-phenyl)-5H-benzo[c]pyrimido[4,5-e]azepin-2-ylamino]-phenyl}-(3-methylamino-pyrrolidin-1-yl)-methanone]	≥ 7.00
COc1cccc(F)c1C1=NCc2cnc(Nc3ccc(C(=O)N4CC(N(C)C)C4)cc3)nc2-c2ccc(Cl)cc21 [Compound I-179, 9-Chloro-N-(4-{[3-(dimethylamino)azetidin-1-yl]carbonyl}phenyl)-7-(2-fluoro-6-methoxyphenyl)-5H-pyrimido[5,4-d][2]benzazepin-2-amine]	≥ 7.00
NC(=O)C1(N)CCN(C(=O)c2ccc(Nc3ncc4c(n3)-c3ccc(Cl)cc3C(c3c(F)cccc3F)=NC4)cc2)CC1 [Compound I-350, 4-amino-1-(4-{[9-chloro-7-(2,6-difluorophenyl)-5H-pyrimido[5,4-d][2]benzazepin-2-yl]amino}benzoyl)piperidine-4-carboxamide]	≥ 7.00
COc1cccc(F)c1C1=NCc2cnc(Nc3ccc(C(=O)N4CCNC(C)C4)cc3)nc2-c2ccc(Cl)cc21 (stereo not drawn) [Compound I-232]	≥ 7.00
CC1CN(C(=N)NC(=O)c2ccc(Nc3ncc4c(n3)-c3ccc(Cl)cc3C(c3c(F)cccc3F)=NC4)cc2)CC(C)N1 (stereo not drawn) [Compound I-238, 4-{[9-chloro-7-(2,6-difluorophenyl)-5H-pyrimido[5,4-d][2]benzazepin-2-yl]amino}-N-[(3,5-dimethylpiperazin-1-yl)(imino)methyl]benzamide]	≥ 7.00
CN(C)CCN(C)C(=O)c1ccc(Nc2ncc3c(n2)-c2ccc(Cl)cc2C(c2c(F)cccc2F)=NC3)cc1 [Compound I-247, 4-{[9-chloro-7-(2,6-difluorophenyl)-5H-pyrimido[5,4-d][2]benzazepin-2-yl]amino}-N-[2-(dimethylamino)ethyl]-N-methylbenzamide]	≥ 7.00
COC(=O)C1(N)CCN(C(=O)c2ccc(Nc3ncc4c(n3)-c3ccc(Cl)cc3C(c3c(F)cccc3F)=NC4)cc2)CC1 [Compound I-294, methyl 4-amino-1-(4-{[9-chloro-7-(2,6-difluorophenyl)-5H-pyrimido[5,4-d][2]benzazepin-2-yl]amino}benzoyl)piperidine-4-carboxylate]	≥ 7.00
CNC1CCN(C(=O)c2coc(Nc3ncc4c(n3)-c3ccc(Cl)cc3C(c3c(F)cccc3F)=NC4)n2)C1 (stereo not drawn) [Compound I-375, 9-chloro-7-(2,6-difluorophenyl)-N-(4-{[3-(methylamino)pyrrolidin-1-yl]carbonyl}-1,3-oxazol-2-yl)-5H-pyrimido[5,4-d][2]benzazepin-2-amine]	≥ 7.00
CNC1CCN(C(=O)c2ccc(Nc3ncc4c(n3)-c3ccc(Cl)cc3C(c3c(F)cccc3F)=NC4)cc2)CC1 [Compound I-220, 9-chloro-7-(2,6-difluorophenyl)-N-(4-{[4-(methylamino)piperidin-1-yl]carbonyl}phenyl)-5H-pyrimido[5,4-d][2]benzazepin-2-amine]	≥ 7.00
O=C(c1ccc(Nc2ncc3c(n2)-c2ccc(Cl)cc2C(c2ccccc2F)=NC3)cc1)N1CCN(CCN2CCCCC2)CC1 [Compound I-182, {4-[9-Chloro-7-(2-fluoro-phenyl)-5H-benzo[c]pyrimido[4,5-e]azepin-2-ylamino]-phenyl}-[4-(2-piperidin-1-yl-ethyl)-piperazin-1-yl]-methanone]	≥ 7.00
COc1ccc2c(c1)C(c1ccccc1F)=NCc1cnc(Nc3ccc(C(=O)N4CCC(N(C)C)C4)cc3)nc1-2 (stereo not drawn) [Compound I-93, (3-Dimethylamino-pyrrolidin-1-yl)-{4-[7-(2-fluoro-phenyl)-9-methoxy-5H-benzo[c]pyrimido[4,5-e]azepin-2-ylamino]-phenyl}-methanone]	≥ 7.00
O=C(O)c1coc(Nc2ncc3c(n2)-c2ccc(Cl)cc2C(c2c(F)cccc2F)=NC3)n1 [Compound I-368, 2-{[9-chloro-7-(2,6-difluorophenyl)-5H-pyrimido[5,4-d][2]benzazepin-2-yl]amino}-1,3-oxazole-4-carboxylic acid]	≥ 7.00
CN(C)C1CCN(C(=O)c2ccc(Nc3ncc4c(n3)-c3ccc(Cl)cc3C(c3ccccc3F)=NC4)cc2)C1 (stereo not drawn) [Compound I-100, {4-[9-Chloro-7-(2-fluoro-phenyl)-5H-benzo[c]pyrimido[4,5-e]azepin-2-ylamino]-phenyl}-(3-dimethylamino-pyrrolidin-1-yl)-methanone]	≥ 7.00
CN1CCN(C(=O)c2cccc(Nc3ncc4c(n3)-c3ccc(Cl)cc3C(c3ccccc3F)=NC4)c2)CC1 [Compound I-163, {3-[9-Chloro-7-(2-fluoro-phenyl)-5H-benzo[c]pyrimido[4,5-e]azepin-2-ylamino]-phenyl}-(4-methyl-piperazin-1-yl)-methanone]	≥ 7.00
C[C@H]1CN(C(=O)c2ccc(Nc3ncc4c(n3)-c3ccc(Cl)cc3C(c3c(F)cccc3F)=NC4)cc2)CCN1 [Compound I-191, {4-[9-Chloro-7-(2,6-difluoro-phenyl)-5H-benzo[c]pyrimido[4,5-e]azepin-2-ylamino]-phenyl}-(3(S)-methyl-piperazin-1-yl)-methanone]	≥ 7.00
